Source: patent US11033624B2, “Medical item for prevention and treatment of ear infection” (Novaflux Inc., priority 2010, dated 2021)

Assay: Thermogravimetric analysis weight loss
Assay type: physicochemical
Conditions: 250° C., pure state, heating rate 10° C./min
Method: An anti-biotic agent was selected consisting of ciprofloxacin betaine crystalline powder (C.A.S. Registry No. 85721-33-1). Ciprofloxacin is a broad spectrum antimicrobial agent having less than 1 percent weight loss at a temperature of 250° C. when measured in a pure state by thermogravimetric analysis at a heating rate of 10° C./min. The ciprofloxacin melted over a temperature range of 252° C. to 271° C.

## O=C(O)c1cn(C2CC2)c2cc(N3CCNCC3)c(F)cc2c1=O [Ciprofloxacin, ciprofloxacin betaine]
  weight loss by thermogravimetric analysis: less than 1%
